Assay results from the supplement of paper PMC10307832.

Experiments:
Assay in all cases: relative viability (nuclei count vs DMSO), 5 days (fraction); higher = more cells survive
MK-2206 + Pemetrexed = compound: NC1(c2ccc(-c3nc4ccn5c(=O)[nH]nc5c4cc3-c3ccccc3)cc2)CCC1 [MK-2206] + Nc1nc2[nH]cc(CCc3ccc(C(=O)N[C@@H](CCC(=O)O)C(=O)O)cc3)c2c(=O)[nH]1 [Pemetrexed] (partner 0.2 µM)
How it was run: (§1)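 Five library-drug doses in √10 steps were combined with a fixed anchor-drug dose, or a single drug was given alone, by pin tool to lung cancer cell lines in 1536-well plates the day after seeding. Nuclei were stained and counted after 5 days. Relative viability is the nuclei count in treated wells over that in vehicle wells, taken as the median of duplicate plates.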

MK-2206 + OSI-027 = compound: NC1(c2ccc(-c3nc4ccn5c(=O)[nH]nc5c4cc3-c3ccccc3)cc2)CCC1 [MK-2206] + COc1cccc2cc(-c3nc([C@H]4CC[C@H](C(=O)O)CC4)n4ncnc(N)c34)[nH]c12 [OSI-027] (partner 0.5 µM)
How it was run: as §1

MK-2206 + Navitoclax = compound: NC1(c2ccc(-c3nc4ccn5c(=O)[nH]nc5c4cc3-c3ccccc3)cc2)CCC1 [MK-2206] + CC1(C)CCC(c2ccc(Cl)cc2)=C(CN2CCN(c3ccc(C(=O)NS(=O)(=O)c4ccc(N[C@H](CCN5CCOCC5)CSc5ccccc5)c(S(=O)(=O)C(F)(F)F)c4)cc3)CC2)C1 [Navitoclax] (partner 0.5 µM)
How it was run: as §1

MK-2206 + Phenformin = compound: NC1(c2ccc(-c3nc4ccn5c(=O)[nH]nc5c4cc3-c3ccccc3)cc2)CCC1 [MK-2206] + N=C(N)NC(=N)NCCc1ccccc1 [Phenformin] (partner 250 µM)
How it was run: as §1

Pictilisib + Dasatinib = compound: CS(=O)(=O)N1CCN(Cc2cc3nc(-c4cccc5[nH]ncc45)nc(N4CCOCC4)c3s2)CC1 [Pictilisib] + Cc1nc(Nc2ncc(C(=O)Nc3c(C)cccc3Cl)s2)cc(N2CCN(CCO)CC2)n1 [Dasatinib] (partner 0.075 µM)
How it was run: as §1

Row | Cell Line | relative viability (MK-2206 + Pemetrexed; first compound 0.01 µM) | relative viability (MK-2206 + Pemetrexed; first compound 0.03162 µM) | relative viability (MK-2206 + Pemetrexed; first compound 0.3162 µM) | relative viability (MK-2206 + Pemetrexed; first compound 1 µM) | relative viability (MK-2206 + OSI-027; first compound 0.01 µM) | relative viability (MK-2206 + OSI-027; first compound 0.03162 µM) | relative viability (MK-2206 + OSI-027; first compound 1 µM) | relative viability (MK-2206 + Navitoclax; first compound 0.01 µM) | relative viability (MK-2206 + Navitoclax; first compound 0.03162 µM) | relative viability (MK-2206 + Navitoclax; first compound 0.3162 µM) | relative viability (MK-2206 + Navitoclax; first compound 1 µM) | relative viability (MK-2206 + Phenformin; first compound 0.01 µM) | relative viability (MK-2206 + Phenformin; first compound 0.03162 µM) | relative viability (MK-2206 + Phenformin; first compound 0.3162 µM) | relative viability (MK-2206 + Phenformin; first compound 1 µM) | relative viability (Pictilisib + Dasatinib; first compound 0.02 µM) | relative viability (Pictilisib + Dasatinib; first compound 0.06325 µM) | relative viability (Pictilisib + Dasatinib; first compound 0.6325 µM) | relative viability (Pictilisib + Dasatinib; first compound 2 µM) | relative viability (MK-2206 + OSI-027; first compound 0.3162 µM)
1 | 201T | 0.318 | 0.313 | 0.342 | 0.333 | 0.772 | 0.766 | 0.494 | 1.23 | 1.28 | 1.23 | 1.21 | 0.446 | 0.417 | 0.42 | 0.52 | 0.552 | 0.506 | 0.464 | 0.276 | –
2 | A549 | – | – | – | – | – | – | – | 1.19 | 1.08 | 1.11 | 0.991 | 0.173 | 0.152 | 0.203 | 0.124 | – | – | – | – | –
3 | A-427 | 1.03 | 0.925 | 1.07 | 1.05 | 0.529 | 0.47 | 0.372 | 0.937 | 0.877 | 0.849 | 0.902 | 0.325 | 0.297 | 0.219 | 0.25 | 0.666 | 0.616 | 0.648 | 0.347 | 0.439
4 | ABC-1 | – | – | – | – | 0.552 | 0.494 | 0.379 | – | – | – | – | 0.265 | 0.235 | 0.196 | 0.232 | 0.664 | 0.55 | 0.522 | 0.473 | 0.381
5 | BEN | 0.736 | 0.767 | 0.679 | 0.697 | 0.3 | 0.301 | 0.297 | 0.069 | 0.0836 | 0.0745 | 0.0466 | 0.258 | 0.267 | 0.272 | 0.295 | 0.351 | 0.3 | 0.355 | 0.285 | 0.271
6 | CAL-12T | 1.12 | 1.07 | 1.28 | 1.06 | 0.67 | 0.554 | 0.485 | 0.963 | 1.32 | 1.22 | 1.14 | 0.492 | 0.561 | 0.626 | 0.564 | 0.352 | 0.3 | 0.141 | 0.0923 | 0.452
7 | COR-L23 | 0.184 | 0.187 | 0.195 | 0.172 | 0.793 | 0.712 | 0.611 | 0.969 | 1.14 | 1.07 | 0.877 | 0.417 | 0.452 | 0.422 | 0.459 | 0.445 | 0.481 | 0.384 | 0.295 | 0.689
8 | COR-L 105 | 1.22 | 1.08 | 1.29 | 1.28 | 0.497 | 0.713 | 0.556 | 0.82 | 0.741 | 0.815 | 0.481 | 0.51 | 0.472 | 0.392 | 0.489 | 0.414 | 0.283 | 0.209 | 0.181 | 0.531
9 | Calu-6 | – | – | – | – | – | – | – | 0.937 | 0.9 | 0.861 | 0.828 | – | – | – | – | – | – | – | – | –
10 | ChaGo-K-1 | 0.267 | 0.268 | 0.265 | 0.265 | 0.575 | 0.631 | 0.463 | 1.3 | 1.17 | 0.816 | 0.454 | 0.524 | 0.488 | 0.46 | 0.497 | 0.628 | 0.682 | 0.517 | 0.384 | 0.477
11 | EBC-1 | – | – | – | – | – | – | – | 0.455 | 0.385 | 0.23 | 0.131 | – | – | – | – | – | – | – | – | –
12 | EKVX | 0.372 | 0.386 | 0.393 | 0.356 | 0.777 | 0.707 | 0.59 | 0.859 | 1.05 | 0.934 | 0.65 | 0.24 | 0.245 | 0.204 | 0.256 | 0.534 | 0.414 | 0.303 | 0.16 | 0.646
13 | EMC-BAC-2 | 0.435 | 0.377 | 0.439 | 0.407 | 0.415 | 0.364 | 0.313 | 1.13 | 1.14 | 1.15 | 1.08 | 0.526 | 0.546 | 0.475 | 0.431 | 0.317 | 0.324 | 0.247 | 0.199 | 0.287
14 | EPLC-272H | 0.329 | 0.319 | 0.3 | 0.354 | 0.31 | 0.259 | 0.266 | 0.915 | 1.18 | – | 1.08 | 0.323 | 0.285 | 0.29 | 0.336 | 0.304 | 0.323 | 0.216 | 0.142 | 0.26
15 | H3255 | 0.557 | 0.614 | 0.538 | 0.508 | 0.635 | 0.624 | 0.413 | 0.519 | 0.579 | 0.439 | 0.312 | 0.357 | 0.322 | 0.368 | 0.343 | 0.447 | 0.31 | 0.252 | 0.213 | 0.481
16 | HARA | 0.269 | 0.23 | 0.265 | 0.217 | 0.536 | 0.564 | 0.194 | 1.08 | 1.11 | 1.24 | 1.17 | 0.432 | 0.577 | 0.386 | 0.415 | 0.256 | 0.246 | 0.163 | 0.142 | 0.304
17 | HCC-15 | 0.254 | 0.198 | 0.218 | 0.204 | 0.663 | 0.675 | 0.404 | 0.687 | 0.622 | 0.617 | 0.62 | 0.469 | 0.519 | 0.442 | 0.288 | 0.639 | 0.627 | 0.492 | 0.301 | 0.436
18 | HCC-44 | 0.632 | 0.593 | 0.61 | 0.675 | 0.496 | 0.441 | 0.205 | 0.868 | 0.962 | 0.868 | 0.818 | 0.184 | 0.184 | 0.152 | 0.107 | – | – | – | – | 0.472
